Data taken from US6335447B1, “Quinolonecarboxylic acid derivatives or salts thereof” (Toyama Chemical Co., Ltd., priority 1998, dated 2002).
≈ marks a conversion by molar mass, not a printed value.

Key:
[1] = system: Staphylococcus aureus (S. aureus F-1924); experiment: MIC against Staphylococcus aureus, agar dilution; type: cell-based; settings: Mueller Hinton agar, 37° C., 20 hours, read-out: MIC (lowest concentration which inhibited visible growth of the cells)
Method: According to the standard method of Japan Chemotherapy Society [CHEMOTHERAPY, Vol. 29, No. 1, p. 76-79 (1981)], Staphylococcus aureus (S. aureus F-1924) was cultivated in Mueller Hinton broth [manufactured by Difco] at 37° C. for 20 hours and the cell density was adjusted to 10^6 cells/plate (10^8 cells/ml). A loopful of the bacterial suspension was inoculated on Mueller Hinton agar medium [manufactured by Difco] and incubated at 37° C. for 20 hours. Whether or not the growth of cells occurred was observed and MIC (μg/ml) was defined as the lowest concentration which inhibited visible growth of the cells.

[2] = system: ddy male mice; experiment: Micronucleus test; type: in vivo; settings: intraperitoneally at 500 mg/Kg
Method: According to the description in Dokusei Shiken Koza 12 (Chijinshokan, 1991), pages 147-153, micronucleus test was carried out using ddy male mice. As a result, the compounds (a), (c), (d) and (g) were negative when administered intraperitoneally at 500 mg/Kg.

[3] = system: ddy male mice; experiment: Acute toxicity; type: in vivo; settings: three ddy male mice; intraperitoneally 500 mg/Kg
Method: Three ddy male mice were intraperitoneally administered with 500 mg/Kg of (a), (b), (d) or (g).

Compound	MIC [1] [µg/mL]	Micronucleus test result [2]	Acute toxicity (death of animals) [3]
Cc1cc(-c2ccc3c(=O)c(C(=O)O)cn(C4CC4)c3c2C)cc(C)n1 [a, 1-Cyclopropyl-7-(2,6-dimethyl-4-pyridyl)-8-methyl-4-oxo-1,4-dihydro-3-quinolinecarboxylic acid]	0.2 (≈ 0.574 µM)	negative	In no case, the animals were dead
Cc1cc(-c2ccc3c(=O)c(C(=O)O)cn(C4CC4)c3c2C)cc(CO)n1 [b, 1-Cyclopropyl-7-(2-hydroxymethyl-6-methyl-4-pyridyl)-8-methyl-4-oxo-1,4-dihydro-3-quinolinecarboxylic acid]	0.39 (≈ 1.07 µM)		In no case, the animals were dead
CNc1ncc(-c2ccc3c(=O)c(C(=O)O)cn(C4CC4)c3c2C)cc1C [d, 1-Cyclopropyl-8-methyl-7-[5-methyl-6-(methylamino)-3-pyridyl]-4-oxo-1,4-dihydro-3-quinolinecarboxylic acid]	0.2 (≈ 0.55 µM)	negative	In no case, the animals were dead
Cc1cc(-c2ccc3c(=O)c(C(=O)O)cn(C4CC4)c3c2C)cnc1N [g, 7-(6-Amino-5-methyl-3-pyridyl)-1-cyclopropyl-8-methyl-4-oxo-1,4-dihydro-3-quinolinecarboxylic acid]	0.1 (≈ 0.286 µM)	negative	In no case, the animals were dead
Cc1cc(-c2cc(C)c3c(=O)c(C(=O)O)cn(C4CC4)c3c2C)cc(C)n1 [i, 1-Cyclopropyl-7-(2,6-dimethyl-4-pyridyl)-5,8-dimethyl-4-oxo-1,4-dihydro-3-quinolinecarboxylic acid]	0.2 (≈ 0.552 µM)		

Further lines, with some results ahead:

MIC [1] [µg/mL]	Compound	Micronucleus test result [2]	Acute toxicity (death of animals) [3]
1.56 (≈ 4.33 µM)	CC1CCc2c(N3CCC(O)CC3)c(F)cc3c(=O)c(C(=O)O)cn1c23 (racemic) [k, (±)-9-Fluoro-6,7-dihydro-8-(4-hydroxy-1-piperidinyl)-5-methyl-1-oxo-1-1H,5H-benzo[i,j]quinolizine-2-carboxylic acid, reference compound]		
0.39 (≈ 1.17 µM)	Cc1ccc(-c2ccc3c(=O)c(C(=O)O)cn(C4CC4)c3c2C)cn1 [c, 1-Cyclopropyl-7-(6-methyl-3-pyridyl)-8-methyl-4-oxo-1,4-dihydro-3-quinolinecarboxylic acid]	negative	
0.78 (≈ 1.94 µM)	Cc1cc(-c2ccc3c(=O)c(C(=O)O)cn(C4CC4)c3c2OC(F)F)cnc1N [e, 7-(6-Amino-5-methyl-3-pyridyl)-1-cyclopropyl-8-(difluoromethoxy)-4-oxo-1,4-dihydro-3-quinolinecarboxylic acid]		
0.39 (≈ 1.07 µM)	COc1c(-c2cnc(N)c(C)c2)ccc2c(=O)c(C(=O)O)cn(C3CC3)c12 [f, 7-(6-Amino-5-methyl-3-pyridyl)-1-cyclopropyl-8-methoxy-4-oxo-1,4-dihydro-3-quinolinecarboxylic acid]		
0.1 (≈ 0.298 µM)	Cc1c(-c2ccc(N)nc2)ccc2c(=O)c(C(=O)O)cn(C3CC3)c12 [h, 7-(6-Amino-3-pyridyl)-1-cyclopropyl-8-methyl-4-oxo-1,4-dihydro-3-quinolinecarboxylic acid]		
0.39 (≈ 1.07 µM)	Cc1cc(-c2cc(N)c3c(=O)c(C(=O)O)cn(C4CC4)c3c2C)cnc1C [j, 5-Amino-1-cyclopropyl-7-(5,6-dimethyl-3-pyridyl)-8-methyl-4-oxo-1,4-dihydro-3-quinolinecarboxylic acid]		
